Assay [1] relates to renal hypertensive rats. Nature of the assay: Antihypertensive activity in renal hypertensive rats, i.m. (Table 3). In kind it is in vivo, rat. As to conditions: 30 mg/kg/day i.m. On the procedure: (§1) An aqueous solution or suspension in peanut oil of each test compound as administered intramuscularly (i.m.) or orally (p.o.) at a dose of 30 to 100 mg/kg (body weight)/day once every morning over the period of 6 to 7 days.
(§2) The blood pressure of each rat was measured daily before and 5 hours after each administration. Furthermore, the blood pressure was measured every morning after drug withdrawal over a period of 3 to 6 days.
(§3) Test compounds (1)-(4) decreased the blood pressure of renal hypertensive rats with a dose of 30 mg/kg/day i.m.. […] The antihypertensive rats with a dose of 100 mg/kg/day p.o..

In another assay the target is T1, High renin plasma (Canis lupus familiaris, UniProt Q6DYE7).
T1 construct: High renin plasma prepared by constriction of the renal artery of a dog anesthetized with Nembutal; from tissue; host or cells: plasma of a dog with constricted renal artery
T1 sequence (Q6DYE7 66-403): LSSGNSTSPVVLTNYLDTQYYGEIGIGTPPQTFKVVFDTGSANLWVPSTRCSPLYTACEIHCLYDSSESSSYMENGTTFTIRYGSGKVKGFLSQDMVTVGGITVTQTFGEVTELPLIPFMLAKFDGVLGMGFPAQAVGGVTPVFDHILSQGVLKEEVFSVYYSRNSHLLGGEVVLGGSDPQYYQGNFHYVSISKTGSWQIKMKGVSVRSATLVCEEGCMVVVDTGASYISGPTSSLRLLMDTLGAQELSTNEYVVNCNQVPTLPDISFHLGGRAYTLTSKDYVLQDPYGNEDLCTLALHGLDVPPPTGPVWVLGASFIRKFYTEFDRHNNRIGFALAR
Description: Renin-inhibitory activity, Method II (high renin plasma of dog, inhibition of Angiotensin I formation). It counts as biochemical. As to conditions: Table 2; 37°C, 4 hours, 1.25 mg/ml; read-out: Rate of inhibiting the formation of Angiotensin I determined by Method II. The protocol:
High renin plasma prepared by constriction of the renal artery of a dog anesthetized with Nembutal (the plasma which when incubated at 37°40 C. for 6 hours, yields 30 to […]. of Angiotensin I) was incubated at 37° C. for 2 to 6 hours in the same way as in Method I, and also under the same conditions in the presence of 1.25 mg/ml. of each of the test compounds.
(§4) The results are shown in Table 1 (the rate of inhibiting the formation of Angiotensin I, as determined by Method I, when the plasma was incubated at 37° C. for 2, 4 and 6 hours respectively), and Table 2 (the rate of inhibiting the formation of Angiotensin I when the plasma was incubated at 37° C. for 4 hours, with the compound concentration of 1.25 mg/ml.)

Another assay concerns the target T2, Renin (Homo sapiens, UniProt P00797).
T2 sequence (P00797 67-406): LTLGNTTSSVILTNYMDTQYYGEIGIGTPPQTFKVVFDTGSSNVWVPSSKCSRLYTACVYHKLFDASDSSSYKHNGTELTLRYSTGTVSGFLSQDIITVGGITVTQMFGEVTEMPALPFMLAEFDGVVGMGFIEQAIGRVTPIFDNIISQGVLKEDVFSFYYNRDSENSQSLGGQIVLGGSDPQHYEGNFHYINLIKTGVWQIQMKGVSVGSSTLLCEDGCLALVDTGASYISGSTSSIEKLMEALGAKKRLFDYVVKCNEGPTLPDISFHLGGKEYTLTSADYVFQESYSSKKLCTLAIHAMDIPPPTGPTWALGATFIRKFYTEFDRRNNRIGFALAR
Description: Renin-inhibitory activity, Method I (inhibition of Angiotensin I formation, RIA). It counts as biochemical. The settings on record: Table 2; 37°C, 4 hours, 1.25 mg/ml; read-out: Rate of inhibiting the formation of Angiotensin I determined by Method I. The protocol: Renin (see E. Haas et al. Circulation Research, Vol. 19, p. 739, 1966 and Vol. 31, p. 65, 1972) was incubated in Angiotensinogen at 37° C. for 2 to 6 hours. Similarly, renin was incubated under the same conditions in the presence of 0.313 to 2.5 mg/ml. of each of the test compounds listed above. The amount of Angiotensin I was measured by radioimmunoassay (RIA) (E. Haber et al., J. Clin. Endocrinol., Vol. 29, p. 1349, 1969), and made the renin activity.
as §4

Assay [2] deals with renal hypertensive rats. Description: Antihypertensive activity in rats, p.o. (Table 4). It counts as in vivo, rat. The settings on record: 100 mg/kg/day p.o. The protocol:
as §1, §2, §3

The mark [3] stands for this setting: 1st day, 0 h (immediately before administration).
Where [4] appears, read: 1st day, 5 hours after administration.
The mark [5] stands for this setting: 2nd day, 0 h (immediately before administration).
The mark [6] stands for this setting: 2nd day, 5 hours after administration.
The mark [7] stands for this setting: 3rd day, 0 h (immediately before administration).
The mark [8] stands for this setting: 3rd day, 5 hours after administration.
The mark [9] stands for this setting: 4th day, 0 h (immediately before administration).
Setting [10] is: 4th day, 5 hours after administration.
Setting [11] is: 5th day, 0 h (immediately before administration).
Setting [12] is: 5th day, 5 hours after administration.
Where [13] appears, read: 6th day, 0 h (immediately before administration).
[14] abbreviates: 6th day, 5 hours after administration.
Where [15] appears, read: 7th day, 0 h (immediately before administration).
Where [16] appears, read: 7th day, 5 hours after administration.

Consider four compounds from patent US3985875A, “ω-(N-acylamino)alkylphosphoryl ethanolamines, pharmaceutical compositions containing them, and their uses” (Dainippon Pharmaceutical Co., Ltd., priority 1974, dated 1976).

For the compound `CCC=CCC=CCC=CCCCCCCCC(=O)NCCOP(=O)(O)OCCN` [(1), 2-(Octadeca-9,12,15-trienoylamino)ethylphosphoryl ethanolamine], the “Changes of blood pressure after drug withdrawal” value (“Changes … after drug withdrawal” for short) is -21 mmHg in the assay on renal hypertensive rats [1] (1st day after withdrawal), -13 mmHg in the assay with renal hypertensive rats [1] (2nd day after withdrawal) and -4 mmHg in the assay on renal hypertensive rats [1] (3rd day after withdrawal). Also, the “Changes of blood pressure” value is 0 mmHg with renal hypertensive rats [1] (setting [3]); -17 mmHg with renal hypertensive rats [1] (setting [4]); -6 mmHg in the assay with renal hypertensive rats [1] (setting [5]); -33 mmHg with renal hypertensive rats [1] (setting [6]); -8 mmHg in the assay with renal hypertensive rats [1] (setting [7]); -35 mmHg in the assay on renal hypertensive rats [1] (setting [8]). In addition, the “Changes of blood pressure” value in the assay with renal hypertensive rats [1] (setting [9]) is -16 mmHg; with renal hypertensive rats [1] (setting [10]), -37 mmHg; in the assay with renal hypertensive rats [1] (setting [11]), -20 mmHg; in the assay with renal hypertensive rats [1] (setting [12]) it was -35 mmHg; with renal hypertensive rats [1] (setting [13]) it was -24 mmHg; in the assay on renal hypertensive rats [1] (setting [14]), -35 mmHg. For the same compound, the figures for the inhibition at 1250 µg/mL at High renin plasma and at Renin were 50% and 61%, respectively.
For `CCCCCC=CCC=CCCCCCCCC(=O)NCCOP(=O)(O)OCCN` [(3), 2-(Octadeca-9,12-dienoylamino)ethylphosphoryl ethanolamine], the “Changes … after drug withdrawal” value in the assay with renal hypertensive rats [1] (1st day after withdrawal) was -39 mmHg; with renal hypertensive rats [1] (2nd day after withdrawal) it was -8 mmHg; in the assay with renal hypertensive rats [1] (3rd day after withdrawal), -1 mmHg. Besides, the “Changes of blood pressure” value is 0 mmHg in the assay with renal hypertensive rats [1] (setting [3]); -12 mmHg in the assay with renal hypertensive rats [1] (setting [4]); -1 mmHg in the assay with renal hypertensive rats [1] (setting [5]); -9 mmHg in the assay on renal hypertensive rats [1] (setting [6]); -8 mmHg in the assay with renal hypertensive rats [1] (setting [7]); -17 mmHg in the assay with renal hypertensive rats [1] (setting [8]). Besides, the “Changes of blood pressure” value in the assay on renal hypertensive rats [1] (setting [9]) is reported as -23 mmHg; in the assay on renal hypertensive rats [1] (setting [10]), -38 mmHg; in the assay with renal hypertensive rats [1] (setting [11]) it was -27 mmHg; with renal hypertensive rats [1] (setting [12]) it was -39 mmHg; in the assay with renal hypertensive rats [1] (setting [13]) it was -35 mmHg; in the assay on renal hypertensive rats [1] (setting [14]) it was -48 mmHg. The figures for the inhibition at 1250 µg/mL on High renin plasma and on Renin were 21% and 25%, respectively.
As to `NCCOP(=O)(O)OCCCNC(=O)COc1ccc(Oc2ccc(Cl)cc2)cc1` [(7), 3-[4-(4'-chlorophenoxy)phenoxyacetylamino]propylphosphoryl ethanolamine], the “Changes … after drug withdrawal” value was -19 mmHg with renal hypertensive rats [2] (1st day after withdrawal); -11 mmHg in the assay on renal hypertensive rats [2] (2nd day after withdrawal); -5 mmHg with renal hypertensive rats [2] (3rd day after withdrawal); -5 mmHg with renal hypertensive rats [2] (4th day after withdrawal); -3 mmHg in the assay with renal hypertensive rats [2] (5th day after withdrawal); -1 mmHg with renal hypertensive rats [2] (6th day after withdrawal). The “Changes of blood pressure” value is recorded as 0 mmHg with renal hypertensive rats [2] (setting [3]); -6 mmHg with renal hypertensive rats [2] (setting [4]); -3 mmHg in the assay on renal hypertensive rats [2] (setting [5]); -10 mmHg in the assay with renal hypertensive rats [2] (setting [6]); -3 mmHg with renal hypertensive rats [2] (setting [7]); -18 mmHg in the assay on renal hypertensive rats [2] (setting [8]). Further, the “Changes of blood pressure” value with renal hypertensive rats [2] (setting [9]) is recorded as -10 mmHg; with renal hypertensive rats [2] (setting [10]), -19 mmHg; in the assay with renal hypertensive rats [2] (setting [11]), -10 mmHg; with renal hypertensive rats [2] (setting [12]), -21 mmHg; in the assay on renal hypertensive rats [2] (setting [13]) it was -11 mmHg; in the assay with renal hypertensive rats [2] (setting [14]) it was -25 mmHg. Besides, the “Changes of blood pressure” value with renal hypertensive rats [2] (setting [15]) is -18 mmHg; in the assay with renal hypertensive rats [2] (setting [16]) it was -28 mmHg. Further, the inhibition at 1250 µg/mL at High renin plasma is 52%; on Renin, 64%.
On to `CC(Oc1ccc(Oc2ccc(Cl)cc2)cc1)C(=O)NCCCOP(=O)(O)OCCN` (stereo not drawn) [(8), 3-{α-[4-(4'-chlorophenoxy)phenoxy]propionylamino} propylphosphoryl ethanolamine], for which the “Changes … after drug withdrawal” value with renal hypertensive rats [2] (1st day after withdrawal) was -22 mmHg; with renal hypertensive rats [2] (2nd day after withdrawal) it was -12 mmHg; with renal hypertensive rats [2] (3rd day after withdrawal), -5 mmHg; in the assay with renal hypertensive rats [2] (4th day after withdrawal) it was “+2 mmHg”; with renal hypertensive rats [2] (5th day after withdrawal), “+1 mmHg”; with renal hypertensive rats [2] (6th day after withdrawal), “+1 mmHg”. The “Changes of blood pressure” value in the assay on renal hypertensive rats [2] (setting [3]) is given as 0 mmHg; with renal hypertensive rats [2] (setting [4]) it was “+4 mmHg”; in the assay with renal hypertensive rats [2] (setting [5]), “+5 mmHg”; in the assay with renal hypertensive rats [2] (setting [6]) it was -1 mmHg; with renal hypertensive rats [2] (setting [7]), -6 mmHg; in the assay on renal hypertensive rats [2] (setting [8]), -13 mmHg. Further, the “Changes of blood pressure” value with renal hypertensive rats [2] (setting [9]) was -10 mmHg; in the assay with renal hypertensive rats [2] (setting [10]) it was -16 mmHg; in the assay on renal hypertensive rats [2] (setting [11]), -10 mmHg; with renal hypertensive rats [2] (setting [12]), -16 mmHg; in the assay on renal hypertensive rats [2] (setting [13]), -9 mmHg; in the assay on renal hypertensive rats [2] (setting [14]) it was -23 mmHg. Further, the “Changes of blood pressure” value is -13 mmHg in the assay with renal hypertensive rats [2] (setting [15]) and -25 mmHg in the assay on renal hypertensive rats [2] (setting [16]). Besides, the inhibition at 1250 µg/mL at High renin plasma worked out at 51%; at Renin it was 67%.
